Results published in patent US8314098B2, “Pyrazolo-pyrimidine compounds” (Ajinomoto Co., Inc., priority 2008, dated 2012).

Tests used:
[1] = tested on: mouse enteritis model; test: Inflammation-inhibitory action in mouse enteritis model (immigration of IL-10-/- cells), weight of large intestine; assay type: in vivo
From the text: The method for establishing the mouse enteritis model by the immigration of IL-10−/−cells is, for instance, disclosed in Gastroenterology. 2009 February; 136(2): 564-74.e2. Epub 2008 Oct. 7.
The following method was used for the determination of the weight of intestinal tract as an indication of the drug efficacy: On the final day of the autopsy, the large intestine extending from the anus to immediately before the blind gut was surgically excised, the contents of the intestinal tract were washed away with physiological saline, the moisture adhered thereto was roughly removed and then the weight thereof was determined.
The inflammation-inhibitory effect of Compound 1 on the mouse enteritis model was evaluated using this evaluation system and the results obtained were plotted on FIG. 1.

[2] = tested on: IL-12p70 (the complex of IL-12p35 and p40); test: IL-12p70 production inhibition in macrophages derived from mouse abdomen (IFN-γ/SAC stimulation, ELISA); assay type: cell-based; details: Macrophage; mouse (Balb/c) abdominal macrophages, 100 ng/mL mouse IFN-γ + 0.05% SAC, overnight; TFA salts tested where prepared as such; read-out: IL-12p70-Inhibitory Activity IC50
Summary of the method: (§1)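 Thioglycolate-elicited adherent peritoneal macrophages from female Balb/c mice were collected 5–6 days after dosing. Cells were stimulated overnight with 100 ng/mL mouse IFN-γ plus 0.05% (v/v) killed S. aureus Cowan I, with compound present. IL-12p70, IL-12p40 and TNF-α in supernatants were measured by ELISA and IC50s derived, with cell survival also checked.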

[3] = tested on: IL-12p40; test: IL-12p40 production inhibition in macrophages derived from mouse abdomen (IFN-γ/SAC stimulation, ELISA); assay type: cell-based; details: Macrophage; mouse (Balb/c) abdominal macrophages, 100 ng/mL mouse IFN-γ + 0.05% SAC, overnight
Method: One milliliter each of a 3% (w/v) thioglycolate solution was intraperitoneally administered to mice (female Balb/c mice), the abdominal cells of each mouse were recovered after 5 or 6 days from the administration of the thioglycolate solution and the adhesive cells were collected and used in the exaluation procedures. To a culture medium containing such adhesive cells, there were added 100 ng/mL of mouse interferon-γ and a 0.05% (v/v) liquid containing killed cells derived from Staphylococcus aureus Cowan I strain (SAC) and a candidate compound and then the mixture was cultivated overnight. After the completion of the cultivation, the survival ratios were determined, there were quantitatively determined the quantities of IL-12p70 (the complex of IL-12p35 and p40) and IL-12p40 or TNF-α according to the ELISA assays while making use of the recovered supernatant of the culture medium and the 50% production-inhibitory concentration (IC50) was calculated for each case (see Table 1 and Tables 1-9 for IL-12p70 and TNF-α and Tables 1 to 10 for IL-12p40).

[4] = tested on: TNF-α; test: TNF-α production inhibition in macrophages derived from mouse abdomen (IFN-γ/SAC stimulation, ELISA); assay type: cell-based; details: Macrophage; mouse (Balb/c) abdominal macrophages, 100 ng/mL mouse IFN-γ + 0.05% SAC, overnight; TFA salts tested where prepared as such; read-out: TNF-α-Inhibitory Activity IC50
Summary of the method: as §1

[5] = tested on: IL-12p70 (the complex of IL-12p35 and p40); test: IL-12p70 production inhibition in whole blood of mouse (IFN-γ/SAC stimulation, ELISA); assay type: cell-based; details: mouse (Balb/c) whole blood, EDTA, 100 ng/mL mouse IFN-γ + 1.25% SAC, overnight; TFA salts tested where prepared as such
Method: The blood was recovered from the mice (female Balb/c mice) (containing added EDTA) and it was used for the evaluation. To a cell culture medium, there were added 100 ng/mL of mouse interferon-γ, 1.25% (v/v) of a liquid containing killed cells derived from Staphylococcus aureus Cowan I strain (SAC) and a candidate compound, the resulting mixture was diluted to a volume equivalent to the blood and then the diluted medium was cultivated overnight. After the completion of the cultivation, the amount of IL-12p70 (the complex of IL-12p35 and p40) was quantitatively determined according to the ELISA assays while making use of the recovered supernatant of the culture medium and the 50% production-inhibitory concentrations (IC50) were calculated for Compounds 38, 80, 82, 83, 84, 85, 87, 90 and 91. (see Table 3).

| IC50 [2] [µM] | IC50 [3] [µM] | IC50 [4] [µM] | IC50 [5] [µM] | Compound | control effect on weight of the large intestine ([1]; mouse enteritis model, 30 mg/kg once a day) | weight of the large intestine increased due to the immigration of IL-10-/- cells ([1]; mouse enteritis model, 3, 10, 30 mg/kg, FIG. 1) |
| --- | --- | --- | --- | --- | --- | --- |
| 0.0084 | 0.0113 | > 10 | 0.88 | Cc1cccc(/C=N/Nc2cc(N3CCOCC3)n3nc(-c4ccncc4)cc3n2)c1 [Compound 83, N-(3-methyl-benzylidene)-N′-(7-morpholin-4-yl-2-pyridin-4-yl-pyrazolo[1,5-a]pyrimidin-5-yl)-hydrazine] | significant control effect | controlled in a dose of Compound 83-dependent manner |
| 0.047 | 0.07 | – | 1 | Cc1cccc(/C=N/Nc2cc(N3CCOCC3)n3nc(-c4ccncn4)cc3n2)c1 [Compound 119, N-(3-methyl-benzylidene)-N-(7-morpholin-4-yl-2-pyrimidin-4-yl-pyrazolo[1,5-a]pyrimidin-5-yl)-hydrazine] | – | – |
| 0.0041 | – | > 10 | 3.2 | C(=N\Nc1cc(N2CCOCC2)n2nc(-c3cccnc3)cc2n1)/c1c[nH]c2ccccc12 [Compound 82, N-(1H-indol-3-yl-methylidene)-N′-(7-morpholin-4-yl-2-pyridin-3-yl-pyrazolo[1,5-a]pyrimidin-5-yl)-hydrazine] | – | – |
| 0.079 | 0.15 | – | 0.84 | Cc1cccc(/C=N/Nc2cc(N3CC4C[C@H]3CO4)n3nc(-c4ccncc4)cc3n2)c1 [Compound 121, N-(3-methyl-benzylidene)-N′-[7-(2-oxo-5-azabicyclo-[2.2.1]hept-5-yl)-2-pyridin-4-yl-pyrazolo[1,5-a]pyrimidin-5-yl]-hydrazine] | – | – |
| 0.141 | 0.137 | > 10 | – | Cc1cccc(/C=N/Nc2cc(N3CCOCC3)n3nccc3n2)c1 [Compound 9, N-(3-methyl-benzylidene)-N′-(7-morpholin-4-yl-pyrazolo-[1,5-a]pyrimidin-5-yl)-hydrazine] | – | – |
| 0.16 | – | > 10 | 4.9 | Cc1cc2nc(N/N=C/c3c[nH]c4ccccc34)cc(N3CCOCC3)n2n1 [Compound 80, N-(1H-indol-3-yl-methylidene)-N′-(2-methyl-7-morpholin-4-yl-pyrazolo[1,5-a]pyrimidin-5-yl)-hydrazine] | – | – |
| 0.056 | 0.0978 | – | 0.28 | C(=N\Nc1cc(N2CCOCC2)n2nc(-c3ccncc3)cc2n1)/c1ccc2cc[nH]c2c1 [Compound 117, N-(1H-indol-6-yl-methylidene)-N′-(7-morpholin-4-yl-2-pyridin-4-yl-pyrazolo[1,5-a]pyrimidin-5-yl)-hydrazine] | – | – |
| 0.0032 | – | > 10 | 2.3 | C(=N\Nc1cc(N2CCOCC2)n2nc(-c3ccncc3)cc2n1)/c1c[nH]c2ccccc12 [Compound 84, N-(1H-indol-3-yl-methylidene)-N′-(7-morpholin-4-yl-2-pyridin-4-yl-pyrazolo[1,5-a]pyrimidin-5-yl)-hydrazine] | – | – |
| 0.011 | – | > 10 | 2.7 | Cc1cccc(/C=N/Nc2cc(N3CCOCC3)n3nc(-c4cccnc4)cc3n2)c1 [Compound 38, N-(3-methyl-benzylidene)-N′-(7-morpholin-4-yl-2-pyridin-3-yl-pyrazolo[1,5-a]pyrimidin-5-yl)-hydrazine] | – | – |
